Molecular target: T1, ABCG2 (Homo sapiens, UniProt Q9UNQ0)
T1 sequence (Q9UNQ0 1-655): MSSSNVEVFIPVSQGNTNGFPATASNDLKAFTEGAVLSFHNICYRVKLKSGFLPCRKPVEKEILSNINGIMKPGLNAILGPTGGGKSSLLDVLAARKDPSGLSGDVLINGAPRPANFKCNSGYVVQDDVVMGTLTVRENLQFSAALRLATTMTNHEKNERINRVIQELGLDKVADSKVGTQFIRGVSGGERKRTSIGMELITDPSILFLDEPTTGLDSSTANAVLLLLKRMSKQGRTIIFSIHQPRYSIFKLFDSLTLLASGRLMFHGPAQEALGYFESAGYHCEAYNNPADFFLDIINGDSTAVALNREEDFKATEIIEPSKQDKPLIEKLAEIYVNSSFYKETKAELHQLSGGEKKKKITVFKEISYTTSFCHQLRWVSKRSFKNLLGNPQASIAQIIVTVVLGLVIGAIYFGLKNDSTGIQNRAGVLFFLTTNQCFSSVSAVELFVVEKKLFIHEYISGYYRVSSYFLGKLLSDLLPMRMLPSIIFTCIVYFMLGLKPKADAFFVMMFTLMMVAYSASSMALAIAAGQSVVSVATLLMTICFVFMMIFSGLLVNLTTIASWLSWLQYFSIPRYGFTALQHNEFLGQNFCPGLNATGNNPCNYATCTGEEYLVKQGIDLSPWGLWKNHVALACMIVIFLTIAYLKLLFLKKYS
Assay: inhibition of [3H]methotrexate transport in Sf9 membrane vesicles
Assay type: biochemical

Compound: Nc1nc(Cl)nc2c1ncn2[C@@H]1O[C@H](CO)[C@@H](O)[C@@H]1F [clofarabine]
- IC50: ~14 µM

Source: PMC3531552 (Cancer research, 2011)
